Counter-ions that a name gives are not always drawn. Square brackets hold non-standard residues; d marks the D form. Peptide text beside a SMILES is read from it. Mpa = O=C(O)CCS
Biological target: T1, neutral endopeptidase (Rattus norvegicus, UniProt P07861)
T1 sequence (P07861 1-750): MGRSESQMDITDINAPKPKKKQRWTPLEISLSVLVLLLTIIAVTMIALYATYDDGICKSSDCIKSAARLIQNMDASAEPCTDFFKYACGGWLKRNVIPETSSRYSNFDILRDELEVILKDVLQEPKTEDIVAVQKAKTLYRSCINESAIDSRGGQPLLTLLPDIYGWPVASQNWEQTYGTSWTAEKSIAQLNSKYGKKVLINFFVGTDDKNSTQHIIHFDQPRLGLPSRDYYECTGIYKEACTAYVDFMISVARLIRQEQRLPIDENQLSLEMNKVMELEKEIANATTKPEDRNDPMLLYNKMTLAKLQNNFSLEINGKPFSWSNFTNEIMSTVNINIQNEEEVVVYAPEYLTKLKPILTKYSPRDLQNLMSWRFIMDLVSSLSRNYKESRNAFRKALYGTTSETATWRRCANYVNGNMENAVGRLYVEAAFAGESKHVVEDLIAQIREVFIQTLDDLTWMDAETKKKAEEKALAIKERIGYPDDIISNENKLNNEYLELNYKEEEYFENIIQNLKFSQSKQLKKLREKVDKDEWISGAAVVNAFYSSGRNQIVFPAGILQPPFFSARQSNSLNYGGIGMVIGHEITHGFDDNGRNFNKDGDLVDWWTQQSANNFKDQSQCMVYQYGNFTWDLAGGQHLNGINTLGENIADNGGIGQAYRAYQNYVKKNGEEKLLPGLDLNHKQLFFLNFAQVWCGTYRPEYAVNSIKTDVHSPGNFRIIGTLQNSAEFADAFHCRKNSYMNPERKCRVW
Assay: biochemical
Details: enzyme purified from rat kidney; Dns-Gly-Phe-Arg 0.5 mM; pH 7.5; 37°, 30 minutes; inhibitor preincubated 10 minutes
Protocol: The in vitro neutral endopeptidase activity is determined using a fluorometric assay procedure. The assay is based upon the cleavage of the fluorescent dansylated tripeptide Dns-Gly-Phe-Arg to form Dns-Gly. The latter is extracted from the acidified mixture by ethyl acetate and is strongly fluorescent.
The incubation mixture employed for the assay contains the substance Dns-Gly-Phe-Arg (0.5 mM), tris(hydroxymethyl)aminomethane -HCl buffer (pH 7.5, 50 mM), an enzyme preparation in 0.05% Triton X-100, and water or inhibitor diluted to a final volume of 0.25 ml. The enzyme preparation is purified from rat kidney according to the procedure described by Almenoff et al. in Biochemistry Vol. 22, p. 590-599 (1983). The inhibitor is preincubated for 10 minutes with the enzyme preparation and buffer before the reaction is initiated by the addition of the substrate. Incubation is carried out at 37° for 30 minutes and the reaction is stopped by the addition of 0.25 ml. 1N HCl and extraction of the Dns-Gly product into 1.5 ml. of ethyl acetate. Relative fluorescent intensity (RFI) of the ethyl acetate extract is measured using a Ferrand Spectofluorometer at excitation and emission wavelengths of 342 and 508 nm., respectively, corrected for the RFI of a zero-time control, and compared with assays lacking inhibitor.
Runs are made at different concentrations of test compound and by use of a mathematical model the IC50 is determined. The IC50 is the concentration of test compound that inhibits activity of the enzyme by 50%.

Row | IC50 [nM] | SMILES
1 | 76 | O=C(O)CCCCCCCCCCNC(=O)C(CS)Cc1ccccc1 (racemic) [Example 53, (±)-11-[[2-(Mercaptomethyl)-1-oxo-3-phenylpropyl]amino]undecanoic acid]
2 | 95 | CC(C)CC(CS)C(=O)NCCC(=O)N[C@@H](CCCNC(=N)N)C(=O)O (mixture of isomers) [Example 58, (±)-N-[N-[2-(Mercaptomethyl)-4-methyl-1-oxopentyl]-β-alanyl]-L-arginine]
3 | 3.3 | CC(C)CC(CS)C(=O)N[C@@H](C)C(=O)O (single isomer, unassigned; isomer a) [Example 12, N-[2-(Mercaptomethyl)-4-methyl-1-oxopentyl]-L-alanine (isomer A)]
4 | 5.3 | O=C(N[C@@H](Cc1ccccc1)C(=O)O)C(CS)Cc1ccccc1 (single isomer, unassigned; isomer a) [Example 31, N-[2,(Mercaptomethyl)-1-oxo-3-phenylpropyl]-L-phenylalanine (isomer A)]
5 | 18 | O=C(O)C[C@H](Cc1ccccc1)NC(=O)C(CS)Cc1ccccc1 (single isomer, unassigned; isomer a) [Example 47]
6 | 23 | CC(C)CC(CS)C(=O)N[C@@H](C)C(=O)N[C@@H](CCCN=C(N)N)C(=O)O (single isomer, unassigned; isomer a) [Example 56, N-[N-[2-(Mercaptomethyl)-4-methyl-1-oxopentyl]-L-alanyl]-L-arginine (isomer A)]
7 | 1200 | CC(C)C[C@H](NC(=O)[C@H](Cc1ccccc1)NC(=O)[C@@H]1CCCC[C@H]1S)C(=O)O (single isomer, unassigned; isomer a) [Example 68, (trans)-N-[N-[(2-Mercaptocyclohexyl)carbonyl]-L-phenylalanyl]-L-leucine (isomer A)]
8 | 2.2 | CC(C)CC(CS)C(=O)N[C@@H](C)C(=O)O (single isomer, unassigned; isomer b) [Example 13, N-[2-(Mercaptomethyl)-4-methyl-1-oxopentyl]-L-alanine (isomer B)]
9 | 20 | CCCC[C@H](NC(=O)C(CS)Cc1ccccc1)C(=O)O (single isomer, unassigned; isomer b) [Example 30, N-[2,(Mercaptomethyl)-1-oxo,3-phenylpropyl]-L-norleucine (isomer B)]
10 | 8.9 | O=C(N[C@@H](Cc1ccccc1)C(=O)O)C(CS)Cc1ccccc1 (single isomer, unassigned; isomer b) [Example 32, N-[2-(Mercaptomethyl-1-oxo-3-phenylpropyl]-L-phenylalanine (isomer B)]
11 | 52 | O=C(O)C[C@H](Cc1ccccc1)NC(=O)C(CS)Cc1ccccc1 (single isomer, unassigned; isomer b) [Example 48]
12 | 28 | CC(C)CC(CS)C(=O)N[C@@H](C)C(=O)N[C@@H](CCCN=C(N)N)C(=O)O (single isomer, unassigned; isomer b) [Example 57, N-[N-[2-(Mercaptomethlyl)-4-methyl-1-oxopentyl]-L-alanyl]-L-arginine (isomer B)]
13 | 380 | O=C(CCS)N[C@@H](Cc1ccccc1)C(=O)O [Example 2, N-(3-Mercapto-1-oxopropyl)-L-phenylalanine]
14 | 91 | C[C@H](CS)C(=O)N[C@@H](Cc1ccc(O)c(O)c1)C(=O)O [Example 14, 3-Hydroxy-N-(D-3-mercapto-2-methyl-1-oxopropyl)-L-tyrosine]
15 | 30 | C[C@@H](CS)C(=O)N[C@@H](Cc1ccc(O)c(O)c1)C(=O)O [Example 15, 3-Hydroxy-N-(R-3-mercapto-2-methyl-1-oxopropyl)-L-tyrosine]
16 | 190 | CC(C)C[C@H](NC(=O)[C@H](C)CS)C(=O)O [Example 40, (S),N-(3-Mercapto-2-methyl-1-oxopropyl)-L-leucine]
17 | 730 | C[C@H](CS)C(=O)N[C@H](C(=O)O)[C@@H](C)O [Example 41, (S)-N-(3-Mercapto-2-methyl-1-oxopropyl)-L-threonine]
18 | 36 | C[C@H](CS)C(=O)N[C@@H](CC(=O)O)C(=O)O [Example 42, (S)-N-(3-Mercapto-2-methyl-1-oxopropyl)-L-aspartic acid]
19 | 64 | CC[C@H](C)[C@H](NC(=O)[C@H](C)CS)C(=O)O [Example 43, (S)-N-(3-Mercapto-2-methyl-1-oxopropyl)-L-isoleucine]

Row | IC50 [nM] | SMILES
20 | 220 | C[C@H](CS)C(=O)N[C@@H](CC(N)=O)C(=O)O [Example 44, (S)-N^2-(3-Mercapto-2-methyl-1-oxopropyl)-L-asparagine]
21 | 20 | O=C(O)CCCCCCCNC(=O)C(CS)Cc1ccccc1 (stereo not shown) [Example 51, 8-[[2-(Mercaptomethyl)-1-oxo-3-phenylpropyl]amino]-octanoic acid]
22 | 31 | C[C@H](NC(=O)[C@H](Cc1ccccc1)NC(=O)CS)C(=O)O [Example 60, N-[N-(Mercaptoacetyl)-L-phenylalanyl]-L-alanine]
23 | 120 | O=C(CS)N[C@@H](Cc1ccccc1)C(=O)N[C@@H](Cc1ccccc1)C(=O)O [Example 61, N-[N-(Mercaptoacetyl)-L-phenylalanyl]-L-phenylalanine]
24 | 740 | O=C(CCS)N[C@@H](Cc1ccccc1)C(=O)N[C@@H](Cc1ccccc1)C(=O)O [Example 62, N-[N-(3-Mercapto-1-oxopropyl)-L-phenylalanyl]-L-phenylalanine] ([Mpa]-Phe-Phe-OH)
25 | 310 | CC(C)C[C@H](NC(=O)CS)C(=O)NCC(=O)O [Example 63, N-[N-(Mercaptoacetyl)-L-leucyl]glycine]
26 | 62 | C[C@H](NC(=O)[C@H](S)Cc1ccccc1)C(=O)N1CCC[C@H]1C(=O)O [Example 65]
27 | 12 | O=C(O)CC(=O)NC(CS)Cc1ccccc1 (stereo not shown) [Example 69, 3-[[1-(Mercaptomethyl)-2-phenylethyl]amino]-3-oxo-propanoic acid]
28 | 3.1 | O=C(O)CCCCC(=O)NC(CS)Cc1ccccc1 (stereo not shown) [Example 70, 6-[[1-(Mercaptomethyl)-2-phenylethyl]amino]-6-oxohexanoic acid]
29 | 14 | O=C(O)CCCCCCC(=O)NC(CS)Cc1ccccc1 (stereo not shown) [Example 71, 8-[[1-(MercaDtomethyl)-2-phenylethyl]amino]-8-oxooctanoic acid]
30 | 950 | CC(C)C[C@H](NC(=O)C(Cc1ccccc1)CP(C)(=O)O)C(=O)O (stereo partly drawn) [Example 74, N-[2-[(hydroxymethylphosphinyl)methyl]-1-oxo-3-phenylpropyl]-L-leucine, dilithium salt]
31 | 40 | O=C(O)CCNC(=O)C(Cc1ccccc1)CP(=O)(O)O (stereo not shown) [Example 75, 3-[[1-Oxo-2-(phenylmethyl)-3-phosphonopropyl]amino]propanoic acid]
32 | 2200 | CC(C)C[C@H](NC(=O)[C@H](Cc1ccccc1)OP(=O)(O)CCc1ccccc1)C(=O)O [Example 77, N-[(S)-2-[[Hydroxy(2-phenylethy1)phosphinyl]oxy]-1-oxo-3-phenylpropyl]-L-leucine, dilithium salt]
33 | 13 | O=C(O)CCNC(=O)[C@H](Cc1ccccc1)N[C@@H](Cc1ccccc1)C(=O)O [Example 78, 3-[[N-[(S)-1-Carboxy-2-phenylethyl]-L-phenylalanyl]-amino]propanoic acid]
34 | 940 | O=C(O)CCCCCCNC(=O)[C@H](Cc1ccccc1)N[C@@H](Cc1ccccc1)C(=O)O [Example 79, 7-[[N-[(S)-l-Carboxy-2-phenylethyl]-L-phenylalanyl]amino]heptanoic acid]
35 | 330 | CC(C)C[C@H](NC(=O)[C@H](Cc1ccccc1)N[C@@H](Cc1ccccc1)C(=O)O)C(=O)O [Example 80, N-[N-[(S)-l-Carboxy-2-phenylethyl]-L-phenylalanyl]-L-leucine]
36 | 15 | N=C(N)NCCC[C@H](NC(=O)CNC(=O)C(CS)Cc1ccccc1)C(=O)O (stereo partly drawn) [Example 82, N-[N-[2-(Mercaptomethyl)-1-oxo-3-phenylpropyl]glycyl]-L-arginine]
37 | 680 | CC(C)[C@H](NC(=O)CS)C(=O)N[C@@H](Cc1c[nH]c2ccccc12)C(=O)O [lithium salt]
